Measurements as given in ChEMBL document CHEMBL1137325, “Multitarget-directed drug design strategy: a novel molecule designed to block epidermal growth factor receptor (EGFR) and to exert proapoptotic effects” (J Med Chem, 2006).
The source made the active and inactive calls. The calls are words filed in the database; no cut-off is given here.

Assays:
A-431 [1] = assay: Induction of necrosis in human A431 cells measured as increase of LDH release; assay type: functional, cell-based
[2] = target: Epidermal growth factor receptor (Homo sapiens, UniProt P00533); assay: Inhibition of EGFR tyrosine kinase activity
A-431 [3] = assay: Antiproliferative activity against human A431 cells after 72 hrs by MTT assay; details: A-431, 72 h
A-431 [4] = assay: Induction of apoptosis in human A431 cells measured as increase in DNA fragmentation; assay type: functional, cell-based
A-431 [5] = assay: Reversibility of antiproliferative activity against human A431 cells after recovery for 68 hrs by MTT assay; details: A-431, 68 h
A-431 [6] = assay: Reversibility of antiproliferative activity against human A431 cells after recovery for 68 hrs in presence of 100 uM DTT by MTT assay; details: A-431, 68 h
A-431 [7] = assay: Reversibility of antiproliferative activity against human A431 cells after recovery for 68 hrs in presence of 50 uM DTT by MTT assay; details: A-431, 68 h

Chain of Epidermal growth factor receptor (P00533 whole entry): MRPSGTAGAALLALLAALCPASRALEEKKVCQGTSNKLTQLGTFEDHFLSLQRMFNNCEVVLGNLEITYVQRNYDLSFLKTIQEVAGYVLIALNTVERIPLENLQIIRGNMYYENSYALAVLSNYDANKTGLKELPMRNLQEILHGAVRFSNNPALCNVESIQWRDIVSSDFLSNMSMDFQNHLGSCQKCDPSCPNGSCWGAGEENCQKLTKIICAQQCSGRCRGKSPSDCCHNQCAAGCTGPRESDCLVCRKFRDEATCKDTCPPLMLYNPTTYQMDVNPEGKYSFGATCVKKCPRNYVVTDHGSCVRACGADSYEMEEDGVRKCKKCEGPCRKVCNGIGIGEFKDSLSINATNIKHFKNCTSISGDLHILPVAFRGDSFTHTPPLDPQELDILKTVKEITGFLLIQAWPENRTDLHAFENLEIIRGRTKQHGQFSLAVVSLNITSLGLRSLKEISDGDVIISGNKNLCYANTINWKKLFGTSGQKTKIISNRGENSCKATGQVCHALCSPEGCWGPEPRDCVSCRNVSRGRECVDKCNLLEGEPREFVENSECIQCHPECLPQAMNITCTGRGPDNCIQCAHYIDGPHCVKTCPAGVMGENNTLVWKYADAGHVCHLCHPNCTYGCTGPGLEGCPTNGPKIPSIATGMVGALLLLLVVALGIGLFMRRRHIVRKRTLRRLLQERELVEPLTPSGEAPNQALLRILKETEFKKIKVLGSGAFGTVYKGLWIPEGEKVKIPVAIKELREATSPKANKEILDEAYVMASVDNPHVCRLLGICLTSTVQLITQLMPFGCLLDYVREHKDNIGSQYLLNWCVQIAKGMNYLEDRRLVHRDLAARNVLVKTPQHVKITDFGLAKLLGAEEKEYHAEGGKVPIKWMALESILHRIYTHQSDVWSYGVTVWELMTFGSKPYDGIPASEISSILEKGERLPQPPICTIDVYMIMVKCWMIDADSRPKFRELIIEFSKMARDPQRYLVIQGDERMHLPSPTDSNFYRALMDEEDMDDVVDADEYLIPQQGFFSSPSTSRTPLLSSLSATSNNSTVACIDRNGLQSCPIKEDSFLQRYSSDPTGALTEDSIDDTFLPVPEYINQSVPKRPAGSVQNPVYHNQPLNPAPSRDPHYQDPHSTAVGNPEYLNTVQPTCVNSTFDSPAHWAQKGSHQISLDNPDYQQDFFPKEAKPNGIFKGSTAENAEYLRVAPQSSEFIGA

In the case of COc1cc2ncnc(Nc3cccc(Br)c3)c2cc1OC, the Activity (A-431 [1]) is reported as “inactive”.
O=C(CC1CCSS1)Nc1ccc2ncnc(Nc3cccc(Br)c3)c2c1 (stereo not drawn) gave an IC50 [2] greater than 3 µM and an IC50 (A-431 [3]) of 13.7 µM.
In the case of O=C(Nc1ccc2ncnc(Nc3cccc(Br)c3)c2c1)C1CCSS1 (stereo not drawn), the Activity (A-431 [4]) is reported as “Dose-dependent effect”, the IC50 [2] is reported as 0.06 µM and the Activity (A-431 [1]) is reported as “inactive”. The IC50 (A-431 [5]) was 9.23 µM, the IC50 (A-431 [3]) was 7.9 µM and the IC50 (A-431 [6]) was 28.1 µM. It also gave an IC50 (A-431 [7]) of 22.4 µM.
With C=CC(=O)Nc1ccc2ncnc(Nc3cccc(Br)c3)c2c1 the Activity (A-431 [1]) was “inactive”.
In the case of O=C(CCCCC1CCSS1)Nc1ccc2ncnc(Nc3cccc(Br)c3)c2c1 (stereo not drawn), the IC50 [2] is reported as greater than 3 µM and the IC50 (A-431 [3]) is reported as 21.6 µM.
